Consider 60 compounds from a melting point compilation (Tetko et al.; mined from patent text by program, amines drawn as free bases though some values may be those of a salt).

The compound `ClC[Si](c1ccccc1)(c1ccccc1)c1ccccc1` returned a melting point of 112 to 115 °C. In the case of `CC(C)(C(=O)O)c1ccc(OC(F)F)cc1` it was 68.5 to 69.5 °C; in that of `Cn1c(=O)c(-c2ccc(Cl)cc2Cl)cc2c3cc(I)ccc3n(C)c21`, 223 to 225 °C; in that of `NS(=O)(=O)c1cc(C(=O)OC[C@@H]2CCCN2N=O)c(NCc2ccco2)cc1Cl`, 79 to 81 °C. In turn, `Cc1ccc(Cn2cc(C(=O)C(=O)O)c3cc(-c4ccc(OC(F)(F)F)cc4)ccc32)cc1` displayed a melting point of 192 to 193 °C. Under `CCc1nn(C2CCCC2)c2cc(C(=O)OC)ccc12` stands 106 to 109 °C. Under `CC(C)n1nc(-c2cc(Br)c(N)nc2-c2ccccc2)ccc1=O` stands 174 to 176 °C; under `CN1CC=C(c2ccnc(C(=O)N(O)Cc3ccccc3)c2)CC1`, 135 to 155 °C; under `CC(C)N1NC(c2ccc(F)cc2)=c2cc(Cl)ccc2=CS1(=O)=O`, 147 to 151 °C. On to `Cc1cc2nc3c(nc2cc1[N+](=O)[O-])SC(C#N)=C(C#N)S3`, for which the melting point fell in the range of 155 to 157 °C. The compound `COc1ccc(C(=O)Nc2ccc(F)cc2F)cc1N` showed a melting point of 166 to 168 °C. In the case of `CCOCc1nc2cnc3cc(OCc4ccccc4)ccc3c2n1CC1COC(C)(C)O1` (stereo not given) it was 110 to 111 °C; in that of `COC(=O)Cc1ccc(OCc2ccc(-c3ccccc3)cc2)cc1`, 115 to 116 °C; in that of `COCCOC(=O)c1cc(-n2c(OC)nc(C(F)(F)C(F)(F)F)cc2=O)c(F)cc1Cl`, 92 to 94 °C. Under `COc1c(S(=O)(=O)Cl)ccc(Cl)c1C` stands 88 to 92 °C; under `COc1ccc(-c2ccccc2-c2ccc(S(C)(=O)=O)cc2)cc1Cl`, 162 °C; under `CC(=O)N1CC(=O)NC(=Cc2ccc(OCc3ccccc3)cn2)C1=O`, 189 to 191 °C. Take `COc1ccc(S(=O)(=O)N(CC(N)=O)c2ccc(Cl)cc2C(O)c2ccccc2C(F)(F)F)cc1OC` (stereo not given): the melting point amounted to 129 °C.

Regarding `O=C(CCC1CCCC1)N1CCN(C(=O)c2cc(C(F)(F)F)cc(C(F)(F)F)c2)[C@H](Cc2c[nH]c3ccccc23)C1`, the melting point lay in the range of 180 to 183 °C. `CNC(=O)c1ccccc1Nc1nc(Nc2ccc3c(n2)CCCCS3)ncc1Cl` yielded a melting point of 169 to 174 °C. `NCc1ccccc1CC(=O)O` showed a melting point of 151 to 155 °C. In the case of `O=c1[nH]c2sccc2c(=O)n1CCN1CCC(=C(c2ccc(F)cc2)c2ccc(F)cc2)CC1` it was 205 to 207 °C; in that of `O=C(O)c1nc2cc(N3CCOCC3)c([N+](=O)[O-])cc2[nH]c1=O`, 214 °C; in that of `CC1CN(S(=O)(=O)c2cc(C#N)ccc2Sc2cc(Cl)ccc2Cl)CC(C)N1` (stereo not given), 160 to 190 °C.

`CN1CCN(c2ccccc2C=C2CCCN(c3ccc(Cl)c(Cl)c3)C2=O)CC1`: the melting point was 138 to 140 °C. In the case of `CC1(C)C(=O)N(c2ccc(C#N)c(C(F)(F)F)c2)C(=O)N1CCCCOCc1ccccc1`, the melting point lay in the range of 75 to 76 °C.

Consider `CC(C)CCNC(=O)c1cc2c(Nc3cccc(Cl)c3)ncnc2[nH]1`, for which the melting point lay in the range of 304 to 306 °C. Take `CO/C=C(/C(=O)OC)c1ccccc1CSc1nc2ccccc2s1`: the melting point lay within 77 to 78 °C. In the case of `CON(C)C(=O)/C=C/C(=C(c1ccc(F)cc1)c1ccc(F)cc1)C(C)C` it was 109 to 110 °C. In turn, `O=[N+]([O-])c1cnccc1NCc1ccccc1` displayed a melting point of 100 to 104 °C. Under `Cc1ccc(C(=Cc2nnnn2C)c2ccc(C)cc2C)c(C)c1` stands 143 to 144 °C; under `C[C@@H]1C[C@H](C)CN(S(=O)(=O)c2ccc(Cl)c(C(=O)NCC(=O)O)c2)C1`, 190 to 192 °C; under `Cn1nnnc1SCCCC(=O)c1ccccn1`, 73 to 75 °C.

Turning to `CC(=O)OC1C=C(Br)C(=O)CO1` (stereo not given), the melting point lay in the range of 78 to 80 °C. Under `CN(C)C(=O)Cc1ccc2[nH]cc(CCN3C(=O)c4ccccc4C3=O)c2c1` stands 193 to 194 °C; under `CC(C#Cc1ccc(Oc2cncc(Cl)c2)o1)N(O)C(N)=O` (stereo not given), 150 °C; under `O=C(c1ccc2ncsc2c1)N1CCC[C@H](c2nc(-c3ccc(F)cc3)no2)C1`, 63 to 64 °C.

As for `O=C(NCc1ccc(Br)cc1)c1cn(N2CCOCC2)c2ccc(CN3CCOCC3)cc2c1=O`, the melting point fell in the range of 200 to 202 °C. `CCOc1ccn2c(C)c(CCc3ccc4nc(N)oc4c3)nc2c1` had a melting point of 207 to 208 °C. In the case of `OC(CCc1cccnc1)CSc1ccc2ccccc2c1` (stereo not given) it was 90 to 92 °C; in that of `CC(=O)C(C)(C#N)c1ccc2c(c1)Cc1cccnc1O2` (stereo not given), 164 °C. Under `CC(C)C(NC(=O)Cn1cc(Cc2ccc(F)cc2)cc(NC(=O)OCc2ccccc2)c1=O)C(=O)C(F)(F)F` (stereo not given) stands 66 to 72 °C. Under `O=C(O)C(Cc1c[nH]cn1)N1C(=O)c2ccccc2C1=O` (stereo not given) stands 280 to 285 °C; under `C/C(=N\OC(=O)[C@@H](NC(=O)OC(C)(C)C)C(C)C)[C@H]1CC[C@H]2[C@@H]3CCC4=CC(=O)CC[C@]4(C)[C@H]3CC[C@]12C`, 82 to 84 °C. `COc1cc(Nc2nc(O)c3c(n2)C(c2ccccc2)CN(C)C3)ccc1-n1cnc(C)c1` (stereo not given) yielded a melting point of 152 to 155 °C. `COC(=O)c1nc(-c2cc([N+](=O)[O-])c(Cl)cc2F)cc(N)c1Cl` yielded a melting point of 161 to 163 °C.

`CN1C(=O)CCCc2cc(Nc3ncc(Cl)c(Nc4ccc(N5CCCCC5)cc4C(N)=O)n3)ccc21` returned a melting point of 295 to 297 °C.

As for `CCCc1nn(-c2ccc(C(F)(F)F)cn2)cc1CCCOc1c(C)cnn1CC(=O)O`, the melting point was in the range of 145 to 146 °C. Under `CC(C)(O)[C@H]1CC[C@H](Cc2cn(-c3ccc(F)cc3)c3ncccc3c2=O)CC1` stands 208 to 209 °C; under `COc1ccc(NS(=O)(=O)c2ccc(N3CCNC3=O)cc2)cc1`, 210 to 211 °C. Under `CC(=O)NC(=O)C(C)SC(C)=O` (stereo not given) stands 91 to 93 °C; under `Ic1cnc2c(c1)N(Cc1ccccc1)CCN2`, 147 to 148 °C. Consider `CC(=O)Oc1ccc2c(c1)COc1cc3cc(OC(C)=O)ccc3cc1-2`, for which the melting point was in the range of 194 to 195 °C. In turn, `CCn1cc(CS(C)(=O)=O)c(=O)c2ccccc21` returned a melting point of 162 to 164 °C. Compound `Nc1c[nH]c(=S)n1C1CCc2ccccc2C1` (stereo not given) displayed a melting point of 169 to 171 °C. `COc1ccc(-c2nc3n(c2-c2ccc(OC)cc2)Cc2ccccc2C3)cc1` gave a melting point of 170 to 172 °C.

`CCOC(=O)c1nc(C)n2c1CN=C(c1ccccn1)c1cc(Br)ccc1-2` showed a melting point of 240 to 243 °C. In the case of `COc1cc2c(cc1Nc1ncc(Cl)c(N[C@@H]3CCCC[C@H]3NS(C)(=O)=O)n1)CCN(C(=O)C(F)(F)F)CC2` it was 98 to 107 °C; in that of `CCc1cc(OCc2ccc(-c3ccccc3-c3nnnn3-c3ccncc3)cc2)c2ccccc2n1`, 155 to 170 °C. In the case of `O=S(=O)(c1cccc(C(F)(F)F)c1)c1cc(Br)nc(Br)c1` it was 156 to 158 °C.

One may read the melting point as the temperature of the solid-liquid transition.
